Test results reported in patent publication EP4813403A1, “USE OF GLP-1R/GIPR DOUBLE-TARGET AGONIST IN PREPARING ANIMAL DRUG” (Hangzhou Zhongmeihuadong Pharmaceutical Co., Ltd., priority 2023, dated 2025).

What was measured:
Assay type in all cases: cell-based
Settings in all cases: ratio of EC50 value of other species to human EC50 value
cat GLP-1R = experiment: Agonistic activity on GLP-1R of different species (LANCE Ultra cAMP assay): cat
Protocol: (§1) CHO-K1 cells were seeded in a 6-well plate at 0.6×10^6 cells/well and incubated overnight in an incubator at a temperature of 37 °C and a carbon dioxide concentration of 5%. The next day, CHO-K1 cell media were replaced. Then two tubes A and B were prepared for each plasmid. 100 µL Opti-MEM was added to tube A, then 4 µL Lipofectamine™ 3000 was added and mixed uniformly. 100 µL Opti-MEM was firstly added to tube B, then 2 µg of one of the plasmids (human GLP-1R-pcDNA5 (+) plasmid, cat GLP-1R-pcDNA5 (+) plasmid, human GIPR-pcDNA5 (+) plasmid, cat GIPR-pcDNA5 (+) plasmid) was added and mixed uniformly, and 4 µL P3000™ was added to tube B and mixed uniformly (the ratio of plasmid to transfection reagent was 1 µg: 2 µL). The diluted solution in tube A was added to the diluted solution in tube B, mixed evenly, and incubated at room temperature for 15 minutes. […]
(§2) 18-20 hours after transfection, human GLP-1R-CHO, cat GLP-1R-CHO, human GIPR-CHO, cat GIPR-CHO cells were resuspended in 1×Casein Stimulation Buffer (HBSS, 5 mM HEPES, 0.5 mM IBMX, 0.1% casein, pH7.4), and seeded into a 384-well cell culture plate at 9 µL/well (cell numbers being 2000, 2000, 1000, 2000 cells/well, respectively). […] The readings at 665 nm and 620 nm were determined with a 330 nm excitation light on a microplate reader. The 665 nm/620 nm reading ratio was calculated. […]

monkey GIPR = experiment: Agonistic activity on GIPR of different species (LANCE Ultra cAMP assay): monkey
Protocol: as §1, with “(human” for “(human GLP-1R-pcDNA5 (+) plasmid, cat GLP-1R-pcDNA5 (+) plasmid, human”, “dog GIPR-pcDNA5 (+) plasmid, mouse GIPR-pcDNA5 (+) plasmid, rat GIPR-pcDNA5 (+) plasmid, rabbit GIPR-pcDNA5 (+) plasmid, monkey” for “cat”, “µL).” for “µL). The diluted solution in tube A was added to the diluted solution in tube B, mixed evenly, and incubated at room temperature for 15 minutes.”
as §2, with “human” for “human GLP-1R-CHO, cat GLP-1R-CHO, human”, “dog GIPR-CHO, mouse GIPR-CHO, rat GIPR-CHO, rabbit GIPR-CHO, and monkey” for “cat”, “being 1000,” for “being”, “2000, 2000,” for “1000,”

human GLP-1R = human GLP-1R (Homo sapiens, UniProt P43220); experiment: Agonistic activity on GLP-1R of different species (LANCE Ultra cAMP assay): human; parameters: expressed in transfected cells; host or cells: HEK293/CRE/GLP-1R clonal cells
Sequence of human GLP-1R (P43220 24-463): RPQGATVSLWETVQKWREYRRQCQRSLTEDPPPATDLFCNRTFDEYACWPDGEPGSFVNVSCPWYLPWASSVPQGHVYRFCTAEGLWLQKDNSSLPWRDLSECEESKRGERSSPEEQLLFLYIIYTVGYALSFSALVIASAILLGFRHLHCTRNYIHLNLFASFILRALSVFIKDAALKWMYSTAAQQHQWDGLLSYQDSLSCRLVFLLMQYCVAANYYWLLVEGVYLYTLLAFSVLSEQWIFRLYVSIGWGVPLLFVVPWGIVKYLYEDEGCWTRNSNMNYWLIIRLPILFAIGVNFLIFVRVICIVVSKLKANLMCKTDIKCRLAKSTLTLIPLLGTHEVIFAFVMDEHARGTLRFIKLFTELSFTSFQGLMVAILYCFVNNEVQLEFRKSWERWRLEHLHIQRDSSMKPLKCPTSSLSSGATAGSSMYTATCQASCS

## CC[C@H](C)[C@H](NC(=O)C(C)(C)NC(=O)[C@H](Cc1ccc(O)cc1)NC(=O)[C@H](CC(=O)O)NC(=O)[C@H](CO)NC(=O)[C@@H](NC(=O)C(C)(Cc1ccccc1)NC(=O)[C@@H](NC(=O)CNC(=O)[C@H](CCC(=O)O)NC(=O)C(C)(C)NC(=O)[C@@H](N)Cc1ccc(O)cc1)[C@@H](C)O)[C@@H](C)O)C(=O)NC(C)(C)C(=O)N[C@@H](CC(C)C)C(=O)N[C@@H](CC(=O)O)C(=O)N[C@@H](CCCCN)C(=O)N[C@@H](CCC(N)=O)C(=O)N[C@@H](C)C(=O)N[C@@H](CCC(N)=O)C(=O)N[C@@H](C)C(=O)N[C@@H](CCC(=O)O)C(=O)N[C@@H](Cc1ccccc1)C(=O)N[C@H](C(=O)N[C@@H](CCCCNC(=O)COCCOCCNC(=O)COCCOCCNC(=O)COCCOCCNC(=O)CC[C@H](NC(=O)CCCCCCCCCCCCCCCCCCCCC(=O)O)C(=O)O)C(=O)N[C@@H](Cc1c[nH]c2ccccc12)C(=O)N[C@@H](CC(C)C)C(=O)N[C@@H](CC(C)C)C(=O)N[C@@H](CCCCN)C(=O)NCC(=O)NCC(=O)N1CCC[C@H]1C(=O)N[C@@H](CO)C(=O)N[C@@H](CO)C(=O)NCC(=O)N[C@@H](C)C(=O)N1CCC[C@H]1C(=O)N1CCC[C@H]1C(=O)N1CCC[C@H]1C(=O)N[C@@H](CO)C(=O)N[C@@H](CCCCN)C(N)=O)C(C)C (stereo partly drawn) [Compound P016]
Cat GLP-1R
  GLP-1R EC50 ratio: 2.98
Monkey GIPR
  GIPR EC50 ratio: 5.77
Human GLP-1R
  GLP-1R EC50 ratio: 1.00
